SMILES strings stand for the structures.

Experiment [1] has as its system A431 cells. Kind of experiment: MTT Assay-2 (A431). The class given is cell-based. Conditions: 0.5 μg/ml Doxorubicin, no light. The protocol:
A431 or CL1-5 cells (approx. 5000 cells) were seeded in each well of a 96-well plate and incubated in medium. After 24 hr of incubation, Doxorubicin (FD), Liposomal-Doxorubicin (LD) and Liposomal-Doxorubicin-Hematoporphyrin (LDH) was added into each well and drug concentration was set at 0.5 μg/ml Doxorubicin and 0.3 μg/ml Hp, After 2 hr, the cells of experiment group were illuminated for 10, 20, or 30 J/cm^2, and MTT assay was performed 72 hr later.

For experiment [2], the system named is CL1-0 cells. The experiment can be described thus: MTT Assay-2 (CL1-0). It counts as cell-based. Conditions: 0.5 μg/ml Doxorubicin; no light.

As for `COc1cccc2c1C(=O)c1c(O)c3c(c(O)c1C2=O)C[C@@](O)(C(=O)CO)C[C@@H]3O[C@H]1C[C@H](N)[C@H](O)[C@H](C)O1` [FD, Doxorubicin], the “toxicity to cell A431 (in words)” value in experiment [1] is “has toxicity to cell A431 significantly”. Moreover, the “activity of mitochondia dehydrogenase (of control group)” value in experiment [1] (A431, 0.3 μg/ml Hp, MTT 72 hr) is on record as “about 30%”. In addition, in experiment [2], the “toxicity to cell CL1-0 (in words)” value is on record as “has toxicity to cell CL1-0 significantly”.

Values taken from patent US20070231375A1, “Liposome combination and the use thereof” (Taipei Medical University, priority 2006, published 2007).
